Measured values as given in patent US11866720B2, “Transgenic or non-transgenic plants with mutated protoporphyrinogen oxidase having increased tolerance to herbicides” (priority 2013, dated 2024).
Where two headings read alike, the source gives them in different places.

Tested on: transgenic soybean expressing mutated PPO
Format: in vivo, Glycine max
Conditions: T1 soybean, field
For injury (1-5 point scale) in this document: key: 1: no obvious damage (no phytotoxicity); 2: minor amount of leaf damage, plant will survive; 3: moderate amount of leaf damage, plant will survive; 4: severe amount of leaf damage, plant will survive; 5: no surviving plants - all plants dead/dying.

## CC(C)N(C)S(=O)(=O)NC(=O)c1cc(-n2c(=O)cc(C(F)(F)F)n(C)c2=O)c(F)cc1Cl [Saflufenacil, saflufenacil]
AmtuPPX2L_R128A_F420V (event 10), saflufenacil: treatment 1 150 g ai/ha, treatment 2 0, 7 DAT
  Injury rating (1-5 point scale): 3
AmtuPPX2L_R128A_F420V (event 10), saflufenacil: treatment 1 300 g ai/ha, treatment 2 300 g ai/ha, 14 DAT
  Injury rating (1-5 point scale): 3
SDS-10533 LTM382-2 AmtuPPX2L_F420L, Saflufenacil (75 gai/ha), 3 days after treatment
  Injury rating (1-5 point scale): 2.5
SDS-10533 LTM382-2 AmtuPPX2L_F420L, Saflufenacil (150 gai/ha), 3 days after treatment
  Injury rating (1-5 point scale): 2.5
SDS-10544 LTM382-2 AmtuPPX2L_F420L, Saflufenacil (75 gai/ha), 3 days after treatment
  Injury rating (1-5 point scale): 2.5
SDS-10544 LTM382-2 AmtuPPX2L_F420L, Saflufenacil (150 gai/ha), 3 days after treatment
  Injury rating (1-5 point scale): 2.5
SDS-10558 LTM382-2 AmtuPPX2L_F420L, Saflufenacil (75 gai/ha), 3 days after treatment
  Injury rating (1-5 point scale): 2.5
SDS-10558 LTM382-2 AmtuPPX2L_F420L, Saflufenacil (150 gai/ha), 3 days after treatment
  Injury rating (1-5 point scale): 2
SDS-10562 LTM377-1 AmtuPPX2L_dG210, Saflufenacil (75 gai/ha), 3 days after treatment
  Injury rating (1-5 point scale): 4
SDS-10562 LTM377-1 AmtuPPX2L_dG210, Saflufenacil (150 gai/ha), 3 days after treatment
  Injury rating (1-5 point scale): 4
SDS-10566 LTM377-1 AmtuPPX2L_dG210, Saflufenacil (75 gai/ha), 3 days after treatment
  Injury rating (1-5 point scale): 4
SDS-10566 LTM377-1 AmtuPPX2L_dG210, Saflufenacil (150 gai/ha), 3 days after treatment
  Injury rating (1-5 point scale): 4
SDS-10633 LTM383-1 AmtuPPX2L_F420M, Saflufenacil (75 gai/ha), 3 days after treatment
  Injury rating (1-5 point scale): 3
SDS-10633 LTM383-1 AmtuPPX2L_F420M, Saflufenacil (150 gai/ha), 3 days after treatment
  Injury rating (1-5 point scale): 3
SDS-10635 LTM383-1 AmtuPPX2L_F420M, Saflufenacil (75 gai/ha), 3 days after treatment
  Injury rating (1-5 point scale): 3.5
SDS-10635 LTM383-1 AmtuPPX2L_F420M, Saflufenacil (150 gai/ha), 3 days after treatment
  Injury rating (1-5 point scale): 3.5
SDS-10642 LTM384-1 AmtuPPX2L_R128A_F420L, Saflufenacil (75 gai/ha), 3 days after treatment
  Injury rating (1-5 point scale): 2
SDS-10642 LTM384-1 AmtuPPX2L_R128A_F420L, Saflufenacil (150 gai/ha), 3 days after treatment
  Injury rating (1-5 point scale): 2
SDS-10645 LTM383-1 AmtuPPX2L_F420M, Saflufenacil (75 gai/ha), 3 days after treatment
  Injury rating (1-5 point scale): 4
SDS-10645 LTM383-1 AmtuPPX2L_F420M, Saflufenacil (150 gai/ha), 3 days after treatment
  Injury rating (1-5 point scale): 3
SDS-10646 LTM383-1 AmtuPPX2L_F420M, Saflufenacil (75 gai/ha), 3 days after treatment
  Injury rating (1-5 point scale): 2.5
SDS-10646 LTM383-1 AmtuPPX2L_F420M, Saflufenacil (150 gai/ha), 3 days after treatment
  Injury rating (1-5 point scale): 2.5
SDS-10648 AmtuPPX2L R128A_F420I, Saflufenacil 75 g ai/ha, 3 days after treatment
  injury (1-5 point scale): 2
SDS-10648 AmtuPPX2L R128A_F420I, Saflufenacil 150 g ai/ha, 3 days after treatment
  injury (1-5 point scale): 2
SDS-10648 LTM386-1 AmtuPPX2L_R128A_F420I, Saflufenacil (75 gai/ha), 3 days after treatment
  Injury rating (1-5 point scale): 3
SDS-10648 LTM386-1 AmtuPPX2L_R128A_F420I, Saflufenacil (150 gai/ha), 3 days after treatment
  Injury rating (1-5 point scale): 3
SDS-10656 LTM377-1 AmtuPPX2L_dG210, Saflufenacil (75 gai/ha), 3 days after treatment
  Injury rating (1-5 point scale): 3.5
SDS-10656 LTM377-1 AmtuPPX2L_dG210, Saflufenacil (150 gai/ha), 3 days after treatment
  Injury rating (1-5 point scale): 3.5
SDS-10658 LTM386-1 AmtuPPX2L_R128A_F420I, Saflufenacil (75 gai/ha), 3 days after treatment
  Injury rating (1-5 point scale): 3.5
SDS-10658 LTM386-1 AmtuPPX2L_R128A_F420I, Saflufenacil (150 gai/ha), 3 days after treatment
  Injury rating (1-5 point scale): 3.5
SDS-10761 LTM383-1 AmtuPPX2L_F420M, Saflufenacil (75 gai/ha), 3 days after treatment
  Injury rating (1-5 point scale): 3
SDS-10761 LTM383-1 AmtuPPX2L_F420M, Saflufenacil (150 gai/ha), 3 days after treatment
  Injury rating (1-5 point scale): 3
SDS-10776 LTM386-1 AmtuPPX2L_R128A_F420I, Saflufenacil (75 gai/ha), 3 days after treatment
  Injury rating (1-5 point scale): 2
SDS-10776 LTM386-1 AmtuPPX2L_R128A_F420I, Saflufenacil (150 gai/ha), 3 days after treatment
  Injury rating (1-5 point scale): 2.5
SDS-10787 LTM384-1 AmtuPPX2L_R128A_F420L, Saflufenacil (75 gai/ha), 3 days after treatment
  Injury rating (1-5 point scale): 3
SDS-10787 LTM384-1 AmtuPPX2L_R128A_F420L, Saflufenacil (150 gai/ha), 3 days after treatment
  Injury rating (1-5 point scale): 2.5
SDS-10791 AmtuPPX2L R128A_F420I, Saflufenacil 75 g ai/ha, 3 days after treatment
  injury (1-5 point scale): 2
SDS-10791 AmtuPPX2L R128A_F420I, Saflufenacil 150 g ai/ha, 3 days after treatment
  injury (1-5 point scale): 2
SDS-10791 LTM386-1 AmtuPPX2L_R128A_F420I, Saflufenacil (75 gai/ha), 3 days after treatment
  Injury rating (1-5 point scale): 2
SDS-10791 LTM386-1 AmtuPPX2L_R128A_F420I, Saflufenacil (150 gai/ha), 3 days after treatment
  Injury rating (1-5 point scale): 2
SDS-10985 LTM385-1 AmtuPPX2L_R128A_F420M, Saflufenacil (75 gai/ha), 3 days after treatment
  Injury rating (1-5 point scale): 2
SDS-10985 LTM385-1 AmtuPPX2L_R128A_F420M, Saflufenacil (150 gai/ha), 3 days after treatment
  Injury rating (1-5 point scale): 2
SDS-10990 LTM385-1 AmtuPPX2L_R128A_F420M, Saflufenacil (75 gai/ha), 3 days after treatment
  Injury rating (1-5 point scale): 2.5
SDS-10990 LTM385-1 AmtuPPX2L_R128A_F420M, Saflufenacil (150 gai/ha), 3 days after treatment
  Injury rating (1-5 point scale): 2.5
SDS-10998 LTM387-1 AmtuPPX2L_R128A_F420V, Saflufenacil (75 gai/ha), 3 days after treatment
  Injury rating (1-5 point scale): 2
SDS-10998 LTM387-1 AmtuPPX2L_R128A_F420V, Saflufenacil (150 gai/ha), 3 days after treatment
  Injury rating (1-5 point scale): 2
SDS-11011 LTM385-1 AmtuPPX2L_R128A_F420M, Saflufenacil (75 gai/ha), 3 days after treatment
  Injury rating (1-5 point scale): 2
SDS-11011 LTM385-1 AmtuPPX2L_R128A_F420M, Saflufenacil (150 gai/ha), 3 days after treatment
  Injury rating (1-5 point scale): 2
SDS-11014 AmtuPPX2L R128A_F420I, Saflufenacil 75 g ai/ha, 3 days after treatment
  injury (1-5 point scale): 2
SDS-11014 AmtuPPX2L R128A_F420I, Saflufenacil 150 g ai/ha, 3 days after treatment
  injury (1-5 point scale): 2
SDS-11014 LTM386-1 AmtuPPX2L_R128A_F420I, Saflufenacil (75 gai/ha), 3 days after treatment
  Injury rating (1-5 point scale): 2
SDS-11014 LTM386-1 AmtuPPX2L_R128A_F420I, Saflufenacil (150 gai/ha), 3 days after treatment
  Injury rating (1-5 point scale): 2
SDS-11034 AmtuPPX2L L397D_F420V, Saflufenacil 75 g ai/ha, 3 days after treatment
  injury (1-5 point scale): 2
SDS-11034 AmtuPPX2L L397D_F420V, Saflufenacil 150 g ai/ha, 3 days after treatment
  injury (1-5 point scale): 2
SDS-11034 LTM387-1 AmtuPPX2L_R128A_F420V, Saflufenacil (75 gai/ha), 3 days after treatment
  Injury rating (1-5 point scale): 3
SDS-11034 LTM387-1 AmtuPPX2L_R128A_F420V, Saflufenacil (150 gai/ha), 3 days after treatment
  Injury rating (1-5 point scale): 2
SDS-11035 AmtuPPX2L R128A_F420V, Saflufenacil 75 g ai/ha, 3 days after treatment
  injury (1-5 point scale): 2
SDS-11035 AmtuPPX2L R128A_F420V, Saflufenacil 150 g ai/ha, 3 days after treatment
  injury (1-5 point scale): 2
SDS-11035 LTM387-1 AmtuPPX2L_R128A_F420V, Saflufenacil (75 gai/ha), 3 days after treatment
  Injury rating (1-5 point scale): 2
SDS-11035 LTM387-1 AmtuPPX2L_R128A_F420V, Saflufenacil (150 gai/ha), 3 days after treatment
  Injury rating (1-5 point scale): 2
SDS-11036 LTM386-1 AmtuPPX2L_R128A_F420I, Saflufenacil (75 gai/ha), 3 days after treatment
  Injury rating (1-5 point scale): 2.5
SDS-11036 LTM386-1 AmtuPPX2L_R128A_F420I, Saflufenacil (150 gai/ha), 3 days after treatment
  Injury rating (1-5 point scale): 2.5
SDS-11052 AmtuPPX2L R128A_F420M, Saflufenacil 75 g ai/ha, 3 days after treatment
  injury (1-5 point scale): 2
SDS-11052 AmtuPPX2L R128A_F420M, Saflufenacil 150 g ai/ha, 3 days after treatment
  injury (1-5 point scale): 2
SDS-11052 LTM385-1 AmtuPPX2L_R128A_F420M, Saflufenacil (75 gai/ha), 3 days after treatment
  Injury rating (1-5 point scale): 3
SDS-11052 LTM385-1 AmtuPPX2L_R128A_F420M, Saflufenacil (150 gai/ha), 3 days after treatment
  Injury rating (1-5 point scale): 3
SDS-11105 LTM387-1 AmtuPPX2L_R128A_F420V, Saflufenacil (75 gai/ha), 3 days after treatment
  Injury rating (1-5 point scale): 2.5
SDS-11105 LTM387-1 AmtuPPX2L_R128A_F420V, Saflufenacil (150 gai/ha), 3 days after treatment
  Injury rating (1-5 point scale): 2.5
SDS-11110 LTM387-1 AmtuPPX2L_R128A_F420V, Saflufenacil (75 gai/ha), 3 days after treatment
  Injury rating (1-5 point scale): 2.5
SDS-11110 LTM387-1 AmtuPPX2L_R128A_F420V, Saflufenacil (150 gai/ha), 3 days after treatment
  Injury rating (1-5 point scale): 2.5
SDS-11111 LTM386-1 AmtuPPX2L_R128A_F420I, Saflufenacil (75 gai/ha), 3 days after treatment
  Injury rating (1-5 point scale): 2.5
SDS-11111 LTM386-1 AmtuPPX2L_R128A_F420I, Saflufenacil (150 gai/ha), 3 days after treatment
  Injury rating (1-5 point scale): 2.5
SDS-11118 LTM386-1 AmtuPPX2L_R128A_F420I, Saflufenacil (75 gai/ha), 3 days after treatment
  Injury rating (1-5 point scale): 2
SDS-11118 LTM386-1 AmtuPPX2L_R128A_F420I, Saflufenacil (150 gai/ha), 3 days after treatment
  Injury rating (1-5 point scale): 2
Wildtype Jake, Saflufenacil (75 gai/ha), 3 days after treatment (Table 11e)
  Injury rating (1-5 point scale): 5
Wildtype Jake, Saflufenacil (75 gai/ha), 3 days after treatment (Table 11d)
  Injury rating (1-5 point scale): 5
Wildtype Jake, Saflufenacil (150 gai/ha), 3 days after treatment (Table 11e)
  Injury rating (1-5 point scale): 5
Wildtype Jake, Saflufenacil (150 gai/ha), 3 days after treatment (Table 11d)
  Injury rating (1-5 point scale): 5
Wild type, Saflufenacil 75 g ai/ha, 3 days after treatment
  injury (1-5 point scale): 5
Wild type, Saflufenacil 150 g ai/ha, 3 days after treatment
  injury (1-5 point scale): 5
Wild type, saflufenacil: treatment 1 150 g ai/ha, treatment 2 0, 7 DAT
  Injury rating (1-5 point scale): 5
Wild type, saflufenacil: treatment 1 300 g ai/ha, treatment 2 300 g ai/ha, 14 DAT
  Injury rating (1-5 point scale): 5
